The values that follow come from patent US9284576B2, “In vitro hepatic differentiation” (Cambride Enterprise Limited, priority 2010, dated 2016).

Peptide text beside a SMILES is read from it. * marks the point of attachment. Cbz = O=C(OCc1ccccc1)*

Assay [1] has as its system dhIPSC derived hepatocytes. The assay is described as follows: Metabolic enzyme response to glucagon stimulation (qRT-PCR of PEPCK, G6P, IGFBP1). The settings on record: 100 nM glucagon hydrochloride; 0, 1, 2 and 3 hours after stimulation; FIG. 16. In kind it is cell-based, human. The procedure: dhIPSC derived hepatocytes were incubated for six hours in serum-free, high-glucose DMEM supplemented with 2 mM L-glutamine, […] penicillin, 100 ug/ml streptomycin, and 0.5% Bovine Serum Albumin (all from Sigma-Aldrich). Cells were stimulated with 100 nM glucagon […] hydrochloride (Novo Nordisk, Bagsvard, Denmark) or PBS (Sigma-Aldrich) as a negative control. Total RNA was harvested using the RNeasy Kit (Qiagen, Hilden, Germany) at 0, 1, 2 or 3 hours after stimulation and purified as per manufacturer's guidelines. Reverse transcription was performed on 1 ug RNA in a 25 μl reaction mixture containing 2000 Moloney Murine Leukemia Virus Reverse Transcriptase, 500 ng random primers and 0.5 mM deoxynucleotide triphosphates (all from Promega, Wis., Ma) as per manufacturer's guidelines. cDNA was subjected to real-time quantitative PCR on an ABI7900 detection system (Applied Biosystems, Foster City, Calif.) using Tagman PCR Mastermix (Applied Biosystems) and gene-specific forward and reverse primers and fluorogenic probes. All results were normalised to human 36B4 as a reference gene. Primers and probes for PEPCK (Hs00159918—1), G6P (Hs00609178—1) and IGFBP1 (Hs00426285 ml) were purchased as premade stocks from Applied Biosystems. Oligonucleotides for 36B4 were designed in-house and synthesised by Sigma-Aldrich (Forward, 5′-[…]-3′; Reverse, 5′-[…]-3′; Probe, 5′-[JOEE][…][TAMRA]-3′).

Assay [2] deals with α1-antitrypsin deficient dhIPSC derived hepatocytes. Nature of the assay: proteosome blocking assay with ELISA for α1-antitrypsin. In kind it is cell-based, human. The settings on record: MG132 added to medium overnight (16 hours), A1ATD vs control hIPSC derived hepatocytes, FIG. 10. The procedure: High binding surface COSTAR 96-well plates (Corning, N.Y., USA) were coated overnight with affinity-purified rabbit polyclonal antibodies against α1-antitrypsin (Abcam 31657, Cambridge, UK) at 2 μg/ml in carbonate/bicarbonate buffer (Na2CO3/NAHCO3, pH 9.5). After washing (0.9% w/v NaCl, 0.05% v/v Tween 20), the plates were blocked for two hours in blocking buffer (PBS, 0.25% w/v BSA, 0.05% v/v Tween 20). Samples (culture medium or cells lysed in 50 μl of Nonidet lysis buffer (150 mM NaCl, 50 mM Tris-Cl, pH 7.5, 1% (v/v) Nonidet P-40), and standards (plasma purified M or Z α1-antitrypsin) were diluted in blocking buffer and 50 μl added to each well then incubated for two hours. After washing, the wells were incubated with either 9C5 or 2C1 monoclonal antibodies (1 μg/ml diluted in blocking buffer), and incubated for two hours. Bound monoclonal antibodies were detected with rabbit anti-mouse IgG HRP-labelled antibody (Sigma Aldrich, Haverhill, UK, 1:20,000) for one hour. The reaction was developed with TMB liquid substrate (Sigma Aldrich, Haverhill, UK) for 10 minutes in the dark and the reaction was stopped with 1 M H2SO4. Absorbance was read at 450 nm on a Thermo-max microplate reader (Molecular Devices, Sunnyvale, Calif., U.S.A.). […]

Regarding glucagon hydrochloride, the “expression of glucagon-responsive genes PEPCK, G6P and IGFBP1” value in assay [1] was “induction of expression of three canonical glucagon-responsive genes”. For the compound `CC(C)C[C@@H](C=O)NC(=O)[C@H](CC(C)C)NC(=O)[C@H](CC(C)C)NC(=O)OCc1ccccc1` [MG132] (Cbz-Leu-Leu-Leu-aldehyde), the “intracellular α1-antitrypsin polymers after proteasome inhibition” value in assay [2] was “disease specific intracellular increase in α1-antitrypsin polymers”.
